# Reference: patent US10786508B2, “Substituted imidazo[1,5-A]-pyrimidines and their use in the treatment of medical disorders” (Lysosomal Therapeutics Inc., priority 2014, dated 2020)
# Columns and labels:
# [1] = biological target: T1, glucocerebrosidase (Gcase) (Homo sapiens, UniProt P04062); assay: Glucocerebrosidase (Gcase) activation assay, 4-methylumbelliferyl-beta-D-glucopyranoside substrate, with saposin C; type: biochemical; conditions: 10 nM GCase, 100 nM saposin C, pH 4.7; for activation at 0.1 µM: read-out: Percent Gease Activation 0.1 μM Test Compound; for activation at 1 µM: read-out: Percent Gease Activation 1 μM Test Compound
# T1 construct: micellar solution containing 10 nM GCase and 100 nM saposin C
# T1 sequence (P04062 40-536): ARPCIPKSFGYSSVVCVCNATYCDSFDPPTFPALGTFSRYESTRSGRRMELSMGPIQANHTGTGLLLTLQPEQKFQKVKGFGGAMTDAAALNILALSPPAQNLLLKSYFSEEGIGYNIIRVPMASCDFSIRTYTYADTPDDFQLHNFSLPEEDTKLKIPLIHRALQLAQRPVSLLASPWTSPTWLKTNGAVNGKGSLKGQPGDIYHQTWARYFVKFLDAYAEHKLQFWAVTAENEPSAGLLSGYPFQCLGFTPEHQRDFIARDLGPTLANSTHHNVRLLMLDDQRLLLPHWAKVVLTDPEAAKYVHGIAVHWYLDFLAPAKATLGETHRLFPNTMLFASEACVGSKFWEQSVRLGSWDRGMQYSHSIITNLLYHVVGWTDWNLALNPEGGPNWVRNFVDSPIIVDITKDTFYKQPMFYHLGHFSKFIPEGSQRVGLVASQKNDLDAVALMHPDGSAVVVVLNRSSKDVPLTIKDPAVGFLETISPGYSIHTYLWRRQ
# Protocol: The ability of exemplary compounds to activate glucocerebrosidase (Gcase) was measured.
# A 484 μL aliquot of a 1.0 mg/mL solution of phosphatidylserine (PS) (Sigma P7769) in chloroform was evaporated under a stream of nitrogen for 1 hour. The lipid film was dissolved over 4 minutes of vigorous vortexing in 40 mL of 176 mM K2HPO4/50 mM citric acid (pH 4.7) containing 7.5 μL of triton X-100, resulting in a mixed micellar preparation with a composition of 0.32 mM triton and 0.37 mol % PS. 4-Methylumbelliferyl-beta-D-glucopyranoside (ACROS-337025000) was dissolved in the micellar solution to a final concentration of 2 mM for use as the reaction substrate.
# Test compounds were diluted to the desired concentrations with dimethylsulfoxide (DMSO) from 10 mM stocks, and 0.41 μL of the DMSO compound mixture was added to 100 μL of micellar solution containing 10 nM GCase and 100 nM saposin C (Enzo ALX-201-262-C050). Pre-incubation was allowed to occur for 30 minutes at room temperature, after which the reaction was initiated by combining 25 μL of substrate solution with 25 μL of compound/GCase/saposin mixture. The reaction proceeded for 15 minutes at room temperature and was stopped by adding 150 μL of 1M glycine, pH 12.5. The endpoint of the reaction was monitored by measuring fluorescence intensity (excitation: 365 nm; emission: 440 nm) on a SpectraMax i3 instrument (Molecular Devices). Test compounds were screened at 1.0 and 0.1 μM final concentration, and subsequent 8-point dose response curves were obtained using 3-fold dilutions from a maximum final concentration of 5 μM.
# For experiments in which the test compound was used at a concentration of 1.0 μM, the symbol “+” indicates less than 30% Gcase activation; the symbol “++” indicates Gcase activation in the range of 30% up to 60%; and the symbol “+++” indicates Gcase activation greater than 60%. For experiments in which the test compound was used at a concentration of 0.1 μM, the symbol “*” indicates less than 10% Gcase activation; the symbol “**” indicates Gcase activation in the range of 10% up to 20%; and the symbol “***” indicates greater than 20% Gcase activation.
# [2] = Compound solubility in water; type: physicochemical
activation at 0.1 µM ([1]; 0.1 μM test compound) [%],activation at 1 µM ([1]; 1 μM test compound) [%],solubility [2] [µg/mL],Compound Solubility in Water [2] [µg/mL],Percent Gease Activation 0.1 μM Test Compound ([1]; 0.1 μM test compound),Percent Gease Activation 1 μM Test Compound ([1]; 1 μM test compound),Structure (SMILES)
10 to 20,> 60,38.5,,,,COCc1cc(C(C)C)n2cnc(C(=O)NC(C)(C)c3cccc(OC4CC4)c3)c2n1 [III-57]
10 to 20,> 60,20.3,,,,CCC(NC(=O)c1ncn2c(C)cc(C)nc12)c1cccc(Cl)c1 (centres unmarked) [III-81]
< 10,< 30,0.7,,,,Cc1cc(C)n2cnc(C(=O)Nc3ccc4[nH]c(C)cc4c3)c2n1 [III-7]
10 to 20,> 60,0.5,,,,Cc1cc(C)n2cnc(C(=O)Nc3ccc(C)c(-c4ncco4)c3)c2n1 [III-26]
< 10,< 30,2.3,,,,Cc1cc(C)n2cnc(C(=O)Nc3ccc4oncc4c3)c2n1 [III-18]
< 10,< 30,,,,,C#Cc1ccc(C(C)(C)NC(=O)c2ncn3c(C)cc(C(F)(F)F)nc23)cc1 [III-39]
< 10,< 30,,3.8,,,Cc1cc(C)n2cnc(C(=O)Nc3ccc4nccc(O)c4c3)c2n1 [III-25]
< 10,< 30,3,,,,Cc1cc(C)n2cnc(C(=O)Nc3ccc4nc(C)oc4c3)c2n1 [III-15]
10 to 20,> 60,14.6,,,,CCCCO[C@@H]1[C@@H]2CC[C@H]1C[C@@H](NC(=O)c1ncn3c(C)cc(C)nc13)C2 [III-86]
< 10,< 30,40.5,,,,C#Cc1cccc(C(C)(C)NC(=O)c2ncn3c(C)cc(C(F)(F)F)nc23)c1 [III-40]
< 10,< 30,29.9,,,,Cc1cc(C)n2cnc(C(=O)Nc3ccc4c(c3)CCNC4)c2n1 [III-16]
< 10,30 to 60,52.9,,,,CCCOc1cccc(C(C)(C)NC(=O)c2ncn3c(COC)c(OC)c(C)nc23)c1 [III-53]
< 10,< 30,26.6,,,,C#Cc1ccc(NC(=O)c2ncn3c(C)cc(C)nc23)cn1 [III-5]
< 10,30 to 60,0.3,,,,Cc1cc(C)n2cnc(C(=O)Nc3ccc4oc(-c5ccncc5)nc4c3)c2n1 [III-19]
< 10,30 to 60,18.7,,,,C#Cc1ccc(C(C)(C)NC(=O)c2ncn3c(C)cc(C)nc23)cc1 [III-42]
< 10,30 to 60,30.9,,,,CCCCCOC1CCC(NC(=O)c2ncn3c(C(C)C)cc(C)nc23)CC1 (centres unmarked) [III-44]
> 20,> 60,0.2,,,,CCCCO[C@H]1C[C@H]2CC[C@@H](C1)[C@H]2NC(=O)c1ncn2c(C)cc(C)nc12 [III-84]
< 10,30 to 60,23,,,,COc1ccccc1[C@@H](C)NC(=O)c1ncn2c(C)cc(C)nc12 [III-76]

activation at 0.1 µM ([1]; 0.1 μM test compound) [%],activation at 1 µM ([1]; 1 μM test compound) [%],solubility [2] [µg/mL],Compound Solubility in Water [2] [µg/mL],Percent Gease Activation 0.1 μM Test Compound ([1]; 0.1 μM test compound),Percent Gease Activation 1 μM Test Compound ([1]; 1 μM test compound),Structure (SMILES)
> 20,> 60,10.5,,,,CCCOc1cccc(C(C)(C)NC(=O)c2ncn3c(COC)cc(C4CC4)nc23)c1 [III-51]
10 to 20,> 60,7.6,,,,C#Cc1cccc(C(C)(C)NC(=O)c2ncn3c(C)cc(C)nc23)c1 [III-41]
< 10,30 to 60,16.6,,,,Cc1cc(C)n2cnc(C(=O)NC3CCc4ccccc4C3)c2n1 (centres unmarked) [III-69]
< 10,30 to 60,7.9,,,,Cc1cc(C)n2cnc(C(=O)Nc3ccc(-c4ncco4)cc3)c2n1 [III-4]
< 10,< 30,3.4,,,,Cc1cc(C)n2cnc(C(=O)Nc3ccc4c(c3)OCO4)c2n1 [III-12]
< 10,< 30,31.2,,,,CCOCc1cccc(C(C)(C)NC(=O)c2ncn3c(C(C)C)cc(COC)nc23)c1 [III-60]
< 10,30 to 60,4.8,,,,Cc1cc(C)n2cnc(C(=O)Nc3ccc(-c4cocn4)cc3)c2n1 [III-3]
< 10,< 30,6.4,,,,Cc1cc(C)n2cnc(C(=O)Nc3ccc4c(c3)CC(=O)N4)c2n1 [III-10]
10 to 20,> 60,14.4,,,,COCc1cc(C2CC2)nc2c(C(=O)NC(C)(C)c3cccc(OC4CC4)c3)ncn12 [III-56]
< 10,< 30,6,,,,Cc1cc(C)n2cnc(C(=O)Nc3ccc4nccc(O)c4c3)c2n1 [III-24]
< 10,30 to 60,5.8,,,,COCC#Cc1ccc(NC(=O)c2ncn3c(C)cc(C)nc23)cc1 [III-2]
> 20,> 60,0.3,,,,CCCCCOc1ccc(NC(=O)c2ncn3c(C)cc(C)nc23)cc1 [III-28]
,,,<0.01,* (less than 10% Gcase activation),+ (less than 30% Gcase activation),Cc1cc(C)n2cnc(C(=O)Nc3ccc(-c4ccco4)nc3)c2n1 [III-31]
< 10,< 30,24.9,,,,Cc1cc(C(F)(F)F)nc2c(C(=O)NC3(C)CCCc4ccccc43)ncn12 (centres unmarked) [III-34]
> 20,> 60,0.3,,,,Cc1cc(C)n2cnc(C(=O)Nc3ccc(-c4ccco4)cc3)c2n1 [III-30]
10 to 20,> 60,,,,,C#Cc1ccc(NC(=O)c2ncn3c(C)cc(C)nc23)cc1F [III-49]
10 to 20,> 60,,,,,C#Cc1ccc(NC(=O)c2ncn3c(C)cc(C)nc23)c(F)c1 [III-48]
10 to 20,> 60,,,,,COCc1cc(C2CC2)nc2c(C(=O)NC3(C)CCOc4c(F)ccc(F)c43)ncn12 (centres unmarked) [III-33]
